Results reported in ChEMBL document CHEMBL4420076, “Amylin and calcitonin receptor agonist” (2017).
Values belong to the compound of their own block, whether it stands above or below them. Numbered stars: 1 amine (or outer) side, 2 acyl side, 3 side chain; on linkers, the order of the positions; unused ones are H or OH. Peptide text beside a SMILES is read from it. * marks the point of attachment. C18 diacid = O=C(O)CCCCCCCCCCCCCCCCC(=O)*; γGlu = O=C(O)[C@H](CCC(=O)[*:2])N[*:1]

Assays:
[1] = Terminal half life in Sprague-Dawley rat at 20 nmol/kg, sc by LC-MS analysis; assay type: ADME, organism-based; conditions: in vivo, read-out: beta t1/2 (converted)
[2] = Half life in LYD pig at 1.6 mM, sc co-formulated with 1.6 mM liraglutide by LC-MS analysis; assay type: ADME, organism-based, Sus scrofa; conditions: in vivo
[3] = Solubility in 100 mM glycylglycine buffer at pH 4.0 incubated for 18 hrs by UPLC analysis; assay type: physicochemical
[4] = Dose normalized AUC in LYD pig at 1.6 mM, sc co-formulated with 1.6 mM liraglutide by LC-MS analysis; assay type: ADME, organism-based, Sus scrofa; conditions: in vivo, 1600 µM
[5] = Stability in pH 7.5 buffer assessed as lag time for fibril formation at 1 uM by Thioflavin T based fluorescence assay; assay type: physicochemical; conditions: pH 7.5, 1 µM
[6] = Half life in LYD pig at 1.6 mM, sc co-dosed with 1.6 mM liraglutide by LC-MS analysis; assay type: ADME, organism-based, Sus scrofa; conditions: in vivo
Calcitonin receptor [7] = target: T1, Calcitonin receptor (Homo sapiens, UniProt P30988); experiment: Agonist activity at human calcitonin receptor expressed in BHK570 cells assessed as increase in intracellular cAMP concentration incubated for 3 hrs in absence of albumin by CRE luciferase reporter gene assay; assay type: functional, cell-based
T1 sequence (P30988 whole entry): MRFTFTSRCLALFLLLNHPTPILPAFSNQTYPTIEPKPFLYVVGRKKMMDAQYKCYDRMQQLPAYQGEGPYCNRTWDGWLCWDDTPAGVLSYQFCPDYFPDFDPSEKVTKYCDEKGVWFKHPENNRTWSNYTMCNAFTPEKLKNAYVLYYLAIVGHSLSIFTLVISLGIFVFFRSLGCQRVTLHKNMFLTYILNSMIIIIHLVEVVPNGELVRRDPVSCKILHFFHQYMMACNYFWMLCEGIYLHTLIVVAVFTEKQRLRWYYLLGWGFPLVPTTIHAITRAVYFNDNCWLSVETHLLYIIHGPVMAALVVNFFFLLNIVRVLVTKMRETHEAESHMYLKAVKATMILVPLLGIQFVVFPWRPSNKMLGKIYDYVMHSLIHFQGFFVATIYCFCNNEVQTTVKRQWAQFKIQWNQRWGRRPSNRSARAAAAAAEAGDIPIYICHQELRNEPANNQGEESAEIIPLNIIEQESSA

[8] = target: T2, Amylin receptor AMY3; CALCR/RAMP3 (Homo sapiens, UniProt O60896+P30988); experiment: Agonist activity at human amylin receptor expressed in BHK570 cells co-expressing RAMP3 assessed as increase in intracellular cAMP concentration incubated for 3 hrs in absence of albumin by CRE luciferase reporter gene assay; assay type: functional, cell-based
T2 sequence (P30988 whole entry): T1 sequence (P30988 whole entry)
T2 sequence (O60896 whole entry): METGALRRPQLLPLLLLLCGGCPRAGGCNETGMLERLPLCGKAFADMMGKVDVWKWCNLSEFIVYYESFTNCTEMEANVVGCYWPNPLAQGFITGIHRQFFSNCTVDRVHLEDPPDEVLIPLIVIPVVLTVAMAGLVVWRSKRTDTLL

[9] = Solubility in 100 mM glycylglycine buffer at pH 5.0 incubated for 18 hrs by UPLC analysis; assay type: physicochemical
[10] = Solubility in 100 mM glycylglycine buffer at pH 3.0 incubated for 18 hrs by UPLC analysis; assay type: physicochemical
Rattus norvegicus [11] = experiment: Reduction in food intake in Sprague-Dawley rat at 3 nmol/kg measured 0 to 24 hrs post dose relative to control; assay type: functional; set-up: scale not given: the % may be the effect or the level left
[12] = Solubility in 100 mM bistrispropane buffer at pH 7.0 incubated for 18 hrs by UPLC analysis; assay type: physicochemical
Rattus norvegicus [13] = experiment: Reduction in food intake in Sprague-Dawley rat at 3 nmol/kg measured 24 to 48 hrs post dose relative to control; assay type: functional; set-up: scale not given: the % may be the effect or the level left
[14] = Dose normalized AUC in LYD pig at 1.6 mM, sc co-dosed with 1.6 mM liraglutide by LC-MS analysis; assay type: ADME, organism-based, Sus scrofa; conditions: in vivo, 1600 µM
[15] = target: T2, Amylin receptor AMY3; CALCR/RAMP3; experiment: Agonist activity at human amylin receptor expressed in BHK570 cells co-expressing RAMP3 assessed as increase in intracellular cAMP concentration incubated for 3 hrs in presence of 10% FBS by CRE luciferase reporter gene assay; assay type: functional, cell-based
[16] = Solubility in 100 mM bistrispropane buffer at pH 8.0 incubated for 18 hrs by UPLC analysis; assay type: physicochemical
[17] = Solubility in 100 mM bistrispropane buffer at pH 6.5 incubated for 18 hrs by UPLC analysis; assay type: physicochemical
Calcitonin receptor [18] = target: T1, Calcitonin receptor; experiment: Agonist activity at human calcitonin receptor expressed in BHK570 cells assessed as increase in intracellular cAMP concentration incubated for 3 hrs in presence of 10% FBS by CRE luciferase reporter gene assay; assay type: functional, cell-based
[19] = Solubility in 100 mM bistrispropane buffer at pH 7.5 incubated for 18 hrs by UPLC analysis; assay type: physicochemical
[20] = Stability in pH 7.5 buffer assessed as compound recovery at 1 uM by Thioflavin T based fluorescence assay; assay type: physicochemical; conditions: read-out: Drug recovery
[21] = Solubility in 100 mM bistrispropane buffer at pH 6.0 incubated for 18 hrs by UPLC analysis; assay type: physicochemical

- half-life [1]: 1 h
SMILES: CC(C)C[C@H](NC(=O)[C@H](CCCCN)NC(=O)CNC(=O)[C@H](CC(C)C)NC(=O)[C@@H](NC(=O)[C@H](CS)NC(=O)[C@@H](NC(=O)[C@H](CO)NC(=O)[C@H](CC(C)C)NC(=O)[C@H](CC(N)=O)NC(=O)[C@H](CO)NC(=O)[C@@H](N)CS)[C@@H](C)O)C(C)C)C(=O)N[C@@H](CO)C(=O)N[C@@H](CCC(N)=O)C(=O)N[C@@H](CCC(=O)O)C(=O)N[C@@H](CC(C)C)C(=O)N[C@@H](Cc1cnc[nH]1)C(=O)N[C@@H](CCCCN)C(=O)N[C@@H](CC(C)C)C(=O)N[C@@H](CCC(N)=O)C(=O)N[C@H](C(=O)N[C@@H](Cc1ccc(O)cc1)C(=O)N1CCC[C@H]1C(=O)N[C@@H](CCCNC(=N)N)C(=O)N[C@H](C(=O)N[C@@H](CC(N)=O)C(=O)N[C@H](C(=O)NCC(=O)N[C@@H](CO)C(=O)NCC(=O)N[C@H](C(=O)N1CCC[C@H]1C(=O)O)[C@@H](C)O)[C@@H](C)O)[C@@H](C)O)[C@@H](C)O

- half-life at 1600 µM [2]: 133 h
- solubility at 18 h [3]: ≥ 200 µM
- AUC/dose [4]: 656 kg·h/L
- Time [5]: > 45 h
- half-life at 1600 µM [6]: 129 h
- EC50 (Calcitonin receptor [7]): 0.017 nM
- EC50 [8]: 0.016 nM
- solubility at 18 h [9]: ≥ 200 µM
- solubility at 18 h [10]: ≥ 200 µM
- solubility at 18 h [12]: ≥ 200 µM
- AUC/dose [14]: 624 kg·h/L
- EC50 [15]: 0.026 nM
- solubility at 18 h [16]: ≥ 200 µM
- solubility at 18 h [17]: ≥ 200 µM
- EC50 (Calcitonin receptor [18]): 0.011 nM
- solubility at 18 h [19]: ≥ 200 µM
- remaining at 1 µM [20]: 100%
- solubility at 18 h [21]: ≥ 200 µM
SMILES: CC(C)C[C@H](NC(=O)[C@H](C)NC(=O)[C@H](C)NC(=O)[C@@H](NC(=O)[C@H](CO)NC(=O)[C@H](CC(C)C)NC(=O)[C@H](CCC(=O)O)NC(=O)[C@H](CO)NC(=O)[C@H](C)NC(=O)CC[C@H](NC(=O)CCCCCCCCCCCCCCCCC(=O)O)C(=O)O)[C@@H](C)O)C(=O)NCC(=O)N[C@@H](CCCNC(=N)N)C(=O)N[C@@H](CC(C)C)C(=O)N[C@@H](CO)C(=O)N[C@@H](C)C(=O)N[C@@H](CCC(=O)O)C(=O)N[C@@H](CC(C)C)C(=O)N[C@@H](Cc1cnc[nH]1)C(=O)N[C@@H](CCC(=O)O)C(=O)N[C@@H](CC(C)C)C(=O)N[C@@H](C)C(=O)N[C@H](C(=O)N[C@@H](CC(C)C)C(=O)N1CCC[C@H]1C(=O)N[C@@H](CCCNC(=N)N)C(=O)N[C@H](C(=O)N[C@@H](CCC(=O)O)C(=O)N[C@H](C(=O)NCC(=O)N[C@@H](CO)C(=O)NCC(=O)N[C@@H](CO)C(=O)N1CCC[C@H]1C(N)=O)[C@@H](C)O)[C@@H](C)O)[C@@H](C)O ({C18 diacid-γGlu}-ASELSTAALGRLSAELHELATLPRTETGSGSP-NH2)
- Activity (Rattus norvegicus [11]): 82%
- Activity (Rattus norvegicus [13]): 78%
